The results in this text go back to ChEMBL document CHEMBL1125524, “Adenosine A1 antagonists. 2. Structure-activity relationships on diuretic activities and protective effects against acute renal failure” (J Med Chem, 1992).

The term inhibition in vivo denotes how much of the control response was suppressed. A word on the Ki: it is a measure of affinity in units of concentration, obtained from inhibition or displacement.

Test [1] deals with Rattus norvegicus. In words: Urea nitrogen concentration measured after intraperitoneal administration of 1 mg/kg of compound to rats(vehicle 151.5+/-7.4). The format is functional.
Test [2] concerns Rattus norvegicus. In words: Effect on urinary excretion potassium and sodium after oral administration of 1.6 mg/kg to rats(potassium and sodium excretion in control rat is 0.169+/-0.012). The format is functional, Urine.
The test system of test [3] is Rattus norvegicus. In words: Ratio of urinary excretion value (urinary volume) in treated rats to that in control rats, at a peroral dose of 1.6 mg/Kg. Type of test: functional, Urine.
Test [4] relates to Rattus norvegicus. In words: Percent inhibition of Urea nitrogen by the compound given as ratio of UN value in treated to vehicle treated ones after intraperitoneal administration of 0.01 mg/kg of compound to rats(vehicle 130.6+/-4.12). To be noted: ip. Type of test: functional.
Test [5] has as its system Rattus norvegicus. In words: Serum creatinine concentration measured after intraperitoneal administration of 1 mg/kg of compound to rats(vehicle 4.82+/-0.17). Type of test: functional.
The test system of test [6] is Rattus norvegicus. In words: Percent inhibition of serum creatinine by the compound given as ratio of Cr value in treated to vehicle treated ones after intraperitoneal administration of 1 mg/kg of compound to rats(vehicle 4.82+/-0.17). Type of test: functional. As to conditions: ip.
Test [7] deals with Rattus norvegicus. In words: Ratio of sodium ion/potassium ion concentration in treated rats to that in control rats, at a peroral dose of 1.6 mg/Kg. The format is functional.
Test [8] has as its system Rattus norvegicus. In words: Ratio of urinary excretion value (urinary volume) in treated rats to that in control rats, at a peroral dose of 0.4 mg/Kg. Type of test: functional, Urine.
The next test has as its target Adenosine A2 receptor (Rattus norvegicus, UniProt P29276+P30543).
Test [9] deals with Rattus norvegicus. In words: Serum creatinine concentration measured after intraperitoneal administration of 0.01 mg/kg of compound to rats(vehicle 4.50+/-0.24). The format is functional.
Test [10] relates to Rattus norvegicus. In words: Ratio of urinary excretion value (Na+ concentration) in treated rats to that in control rats, at a peroral dose of 1.6 mg/Kg. Type of test: functional, Urine.
In test [11] the test system is Rattus norvegicus. In words: Serum creatinine concentration measured after intraperitoneal administration of 0.1 mg/kg of compound to rats(vehicle 3.92+/-0.23). The format is functional.
The test system of test [12] is Rattus norvegicus. In words: Urea nitrogen concentration measured after intraperitoneal administration of 0.1 mg/kg of compound to rats(vehicle 141.3+/-8.3). The format is functional.
The test system of test [13] is Rattus norvegicus. In words: Percent inhibition of Urea nitrogen by the compound given as ratio of UN value in treated to vehicle treated ones after intraperitoneal administration of 0.1 mg/kg of compound to rats(vehicle 141.3+/-8.3). Type of test: functional. To be noted: ip.
The test system of test [14] is Rattus norvegicus. In words: Percent inhibition of serum creatinine by the compound given as ratio of Cr value in treated to vehicle treated ones after intraperitoneal administration of 0.01 mg/kg of compound to rats(vehicle 4.50+/-0.24). The format is functional. To be noted: ip.
The test system of test [15] is Rattus norvegicus. In words: Percent inhibition of Urea nitrogen by the compound given as ratio of UN value in treated to vehicle treated ones after intraperitoneal administration of 1 mg/kg of compound to rats(vehicle 151.5+/-7.4). The format is functional. As to conditions: ip.
Test [16] deals with Rattus norvegicus. In words: Oral diuretic activity was measured after oral administration of 1.6 mg/kg to rats(control volume is 0.97+/-0.05). Type of test: functional, Urine.
Test [17] deals with Rattus norvegicus. In words: Percent inhibition of serum creatinine by the compound given as ratio of Cr value in treated to vehicle treated ones after intraperitoneal administration of 0.1 mg/kg of compound to rats(vehicle 3.92+/-0.23). As to conditions: ip. Type of test: functional.
The test system of test [18] is Rattus norvegicus. In words: Oral diuretic activity was measured after oral administration of 0.4 mg/kg to rats(control volume is 1.72+/-0.31). The format is functional, Urine.
Test [19] concerns Rattus norvegicus. In words: Ratio of urinary excretion value (Na+ concentration) in treated rats to that in control rats, at a peroral dose of 0.4 mg/Kg. Type of test: functional, Urine.
The subject of test [20] is Rattus norvegicus. In words: Ratio of sodium ion/potassium ion concentration in treated rats to that in control rats, at a peroral dose of 0.4 mg/Kg. The format is functional.
The subject of test [21] is Rattus norvegicus. In words: Urea nitrogen concentration measured after intraperitoneal administration of 0.01 mg/kg of compound to rats(vehicle 130.6+/-4.12). Type of test: functional.
In test [22] the test system is Rattus norvegicus. In words: Effect on urinary excretion potassium and sodium after oral administration of 0.4 mg/kg to rats(potassium and sodium excretion in control rat is 0.267+/-0.044). The format is functional, Urine.
Test [23] concerns Rattus norvegicus. In words: Ratio of urinary excretion value (urinary volume) in treated rats to that in control rats, at a peroral dose of 3.1 mg/Kg. Type of test: functional, Urine.
In test [24] the test system is Rattus norvegicus. In words: Ratio of urinary excretion value (Na+ concentration) in treated rats to that in control rats, at a peroral dose of 3.1 mg/Kg. The format is functional, Urine.
The subject of test [25] is Rattus norvegicus. In words: Percent inhibition of Urea nitrogen by the compound given as ratio of UN value in treated to vehicle treated ones after intraperitoneal administration of 10 mg/kg of compound to rats(vehicle 146.7+/-10.1). Type of test: functional. To be noted: ip.
Another test addresses T1, Adenosine receptor A1 (Cavia porcellus, UniProt P47745).
T1 sequence (P47745 whole entry): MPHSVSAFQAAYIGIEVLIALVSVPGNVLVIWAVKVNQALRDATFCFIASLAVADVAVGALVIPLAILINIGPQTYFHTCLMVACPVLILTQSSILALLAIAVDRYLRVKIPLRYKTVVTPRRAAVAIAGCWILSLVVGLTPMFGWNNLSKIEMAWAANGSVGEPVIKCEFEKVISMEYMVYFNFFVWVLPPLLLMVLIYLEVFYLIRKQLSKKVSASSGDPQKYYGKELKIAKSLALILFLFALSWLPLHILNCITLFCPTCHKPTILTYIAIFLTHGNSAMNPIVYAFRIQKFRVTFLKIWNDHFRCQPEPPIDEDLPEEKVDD

For test [26], the system named is Rattus norvegicus. In words: Percent inhibition of serum creatinine by the compound given as ratio of Cr value in treated to vehicle treated ones after intraperitoneal administration of 1 mg/kg of compound to rats(vehicle 4.91+/-0.10). The format is functional. As to conditions: ip.
Test [27] concerns Rattus norvegicus. In words: Ratio of sodium ion/potassium ion concentration in treated rats to that in control rats, at a peroral dose of 3.1 mg/Kg. Type of test: functional.
The test system of test [28] is Rattus norvegicus. In words: Serum creatinine concentration measured after intraperitoneal administration of 1 mg/kg of compound to rats(vehicle 4.91+/-0.10). Type of test: functional.
Test [29] deals with Rattus norvegicus. In words: Serum creatinine concentration measured after intraperitoneal administration of 10 mg/kg of compound to rats(vehicle 4.26+/-0.39). Type of test: functional.
Test [30] has as its system Rattus norvegicus. In words: Ratio of urinary excretion value (Na+ concentration) in treated rats to that in control rats, at a peroral dose of 25 mg/Kg. Type of test: functional, Urine.
Test [31] concerns Rattus norvegicus. In words: Effect on urinary excretion potassium and sodium after oral administration of 3.1 mg/kg to rats(potassium and sodium excretion in control rat is 0.227+/-0.027). The format is functional, Urine.
The test system of test [32] is Rattus norvegicus. In words: Effect on urinary excretion potassium and sodium after oral administration of 25 mg/kg to rats(potassium and sodium excretion in control rat is 0.079+/-0.007). The format is functional, Urine.
Test [33] has as its system Rattus norvegicus. In words: Effect on urinary excretion potassium and sodium after oral administration of 1.6 mg/kg to rats(potassium and sodium excretion in control rat is 0.158+/-0.034). The format is functional, Urine.
The test system of test [34] is Rattus norvegicus. In words: Oral diuretic activity was measured after oral administration of 1.6 mg/kg to rats(control volume is 1.12+/-0.33). The format is functional, Urine.
In test [35] the test system is Rattus norvegicus. In words: Urea nitrogen concentration measured after intraperitoneal administration of 10 mg/kg of compound to rats(vehicle 146.7+/-10.1). The format is functional.
For test [36], the system named is Rattus norvegicus. In words: Oral diuretic activity was measured after oral administration of 3.1 mg/kg to rats(control volume is 1.18+/-0.11). The format is functional, Urine.
Test [37] has as its system Rattus norvegicus. In words: Urea nitrogen concentration measured after intraperitoneal administration of 1 mg/kg of compound to rats(vehicle 154.5+/-7). The format is functional.
Test [38] deals with Rattus norvegicus. In words: Oral diuretic activity was measured after oral administration of 25 mg/kg to rats(control volume is 0.69+/-0.03). Type of test: functional, Urine.
Test [39] has as its system Rattus norvegicus. In words: Percent inhibition of serum creatinine by the compound given as ratio of Cr value in treated to vehicle treated ones after intraperitoneal administration of 10 mg/kg of compound to rats(vehicle 4.26+/-0.39). The format is functional. To be noted: ip.
Test [40] deals with Rattus norvegicus. In words: Ratio of urinary excretion value (urinary volume) in treated rats to that in control rats, at a peroral dose of 25 mg/Kg. The format is functional, Urine.
The subject of test [41] is Rattus norvegicus. In words: Percent inhibition of Urea nitrogen by the compound given as ratio of UN value in treated to vehicle treated ones after intraperitoneal administration of 1 mg/kg of compound to rats(vehicle 154.5+/-7). To be noted: ip. The format is functional.

Structures are written as SMILES.

Description for Adenosine receptor A1: Binding affinity against adenosine A1 receptor in guinea pig forebrain membranes using N6-[3H]cyclohexyladenosine as radioligand

For `CC(C)Cn1c(=O)n(C)c(=O)c2[nH]c(C34CC5CC(CC3C5)C4)nc21`, the figures for the UN in the test on Rattus norvegicus [1], with Rattus norvegicus [12] and in the test with Rattus norvegicus [21] were 74 mg/dL, 70.9 mg/dL and 115.5 mg/dL, respectively. Further, the Na with Rattus norvegicus [2] was determined as 0.409 m equiv 6hr-1 100g-1; with Rattus norvegicus [22], 0.367 m equiv 6hr-1 100g-1. For the same compound, the T/C came to 2.51 with Rattus norvegicus [3], 1.4 with Rattus norvegicus [8], 2.43 with Rattus norvegicus [10] and 1.38 with Rattus norvegicus [19]. In addition, the inhibition in vivo at 0.01 mg/kg came to 12% in the test with Rattus norvegicus [4] and 25% with Rattus norvegicus [14]. For the same compound, the Cr with Rattus norvegicus [5] was 2.76 mg/dL; in the test with Rattus norvegicus [9], 3.38 mg/dL; with Rattus norvegicus [11] it was 2.04 mg/dL. Besides, the inhibition in vivo at 1 mg/kg with Rattus norvegicus [6] was found to be 42%; with Rattus norvegicus [15] it was 51%. Further, the “Na+/K+” value in the test on Rattus norvegicus [7] is 1.73; with Rattus norvegicus [20], 1.37. This compound yielded a Ki on Adenosine A2 receptor of 850 nM. Also, the inhibition in vivo at 0.1 mg/kg in the test with Rattus norvegicus [13] was 50%; with Rattus norvegicus [17], 48%. For the same compound, the Urine volume with Rattus norvegicus [16] is 2.43 ml 6hr-1 100g-1; in the test on Rattus norvegicus [18], 2.41 ml 6hr-1 100g-1.

Regarding `CCCn1c(=O)c2nc(C34CC5CC(CC(C5)C3)C4)[nH]c2n(CCC)c1=O`, the T/C in the test on Rattus norvegicus [23] amounted to 1.42; with Rattus norvegicus [24], 1.32; with Rattus norvegicus [3], 1.24; with Rattus norvegicus [30], 2.86; in the test on Rattus norvegicus [10], 1.44; in the test with Rattus norvegicus [40], 2.29. The inhibition in vivo at 10 mg/kg in the test with Rattus norvegicus [25] was 47%; in the test on Rattus norvegicus [39], 55%. Affinity on Adenosine receptor A1 was put at a Ki of 13 nM. The inhibition in vivo at 1 mg/kg in the test on Rattus norvegicus [26] was 30%; in the test on Rattus norvegicus [41] it was 25%. The “Na+/K+” value in the test with Rattus norvegicus [7] was found to be 1.22; in the test on Rattus norvegicus [27], 1.23. In addition, the Cr was found to be 3.45 mg/dL in the test on Rattus norvegicus [28] and 1.91 mg/dL in the test on Rattus norvegicus [29]. Moreover, the Na in the test with Rattus norvegicus [31] is on record as 0.299 m equiv 6hr-1 100g-1; in the test with Rattus norvegicus [32], 0.226 m equiv 6hr-1 100g-1; with Rattus norvegicus [33], 0.227 m equiv 6hr-1 100g-1. For the same compound, the Urine volume with Rattus norvegicus [34] is recorded as 1.39 ml 6hr-1 100g-1; in the test with Rattus norvegicus [36], 1.67 ml 6hr-1 100g-1; with Rattus norvegicus [38], 1.58 ml 6hr-1 100g-1. Moreover, the UN with Rattus norvegicus [35] turned out to be 77.5 mg/dL; in the test with Rattus norvegicus [37] it was 118.8 mg/dL.
